# Assay results: patent US20200085047A1, “Use of an Acyclic Picolinamide Compound as a Fungicide for Control of Phytopathogenic Fungi in Vegetables” (Dow AgroSciences LLC, priority 2017, published 2020)
# Tests used:
# Assay type in all cases: in vivo
# [1] = system: Corynespora cassiicola; assay: Field assessment of Corynespora cassiicola (CORYCA) in tomato; conditions: SC
# Description: Field Assessment of Corynespora cassiicola (CORYCA) in Tomato:
# A fungicidal treatment containing Compound I, applied in an SC formulation (MSO built-in) and tank mixed with an adjuvant (Agnique BP-420, 50% w/w at 0.2% v/v or Adsee C80W 80%), was sprayed on tomato plants (LYPES, Charger variety) at growth stage BBCH64 (4th flower open) at rates of 50, 75, 100, and 150 grams of active ingredient per hectare (g ai/ha). The experimental plots were inoculated with the target spot pathogen one day after initial application. The treatment was part of an experimental trial designed as a randomized complete block (RCB) with four replications and a plot of approximately 6×25 feet (ft). Compound I was applied at water volume of 100 gallons per acre (gal/acre), using a tractor sprayer (SCDISC D1 Nozzles) and pressurized at 200 psi.
# Disease severity (percentage of visual diseased foliage (leaf) on whole plot) was assessed four times during the trial (1-20 days after application, DAA). Area under the disease progress curve (AUDPC) was calculated for each plot using the sets of recorded severity data. Relative AUDPC (% control based on AUDPC) was calculated as percent of the untreated control.
# [2] = system: Mycovellosiella fulva; assay: Field assessment of Mycovellosiella fulva (FULVFU) on tomato, curative; conditions: 10% SC; for Percent control based on AUDPC, FULVFU, adjuvant II: Agnique BP420 (50% w/w at 0.3% v/v); for Percent control based on AUDPC, FULVFU, adjuvant I: no adjuvant
# Description: Field assessment of Mycovellosiella fulva (FULVFU) on tomato:
# A 10% SC formulation of compound I was tanked mixed with four different adjuvants: Agnique BP420 (50% w/w at 0.3% v/v); Trycol (50% w/w at 0.1% v/v); Ethomeen T18H (50% w/w at 0.2% v/v); and Phase II (50% w/w at 0.2% v/v). A fungicidal treatment containing formulations of compound I, either alone or with adjuvants, was sprayed on tomato plants four times, the first application approximately 3 months after planting, with the following three applications in 7-10 day intervals. Formulations of compound I were applied at rates of 50, 100, 150 and 200 grams of active ingredient per hectare (g ai/ha). The experimental plots were inoculated with the leaf mold pathogen 7 days before the first application (curative). The treatment was part of an experimental trial designed as a randomized complete block with four replications and a plot of approximately 2.5×1.4 m. Formulations of compound I were applied at water volume of 675 L/ha.
# Disease severity was recorded as a percentage of visual diseased foliage (6 random plants per plot). Tomato leaf mold infection was assessed five times at 7 days after the first application (7 DAAA), 7 DAAB, 5 DAAC, followed by 7 and 12 DAAD. Area under the disease progress curve (AUDPC) was calculated for each plot using the sets of recorded severity data. Relative AUDPC (% control based on AUDPC) was calculated as percent of the nontreated control.
# [3] = system: Erysiphe cichoracearum; assay: Field assessment of Erysiphe cichoracearum (ERYSCI) on cucumber, 2 day curative; conditions: 5% EC + Trycol
# Description: Field Assessment of Erysiphe Cichoracearum (ERYSCI) on Cucumber:
# In the curative trial, a fungicidal treatment containing a 5% EC formulation of compound I plus an adjuvant (Trycol, 50% w/w at 0.2% v/v), was sprayed on cucumber plants (CUMSA) twice, the first application at the fruiting stage 29 days after planting, with the second application after 7 days. Formulations of compound I were applied at rates of 50, 100 and 150 grams of active ingredient per hectare (g ai/ha). The experimental plots were inoculated with the powdery mildew pathogen 2 days before the first application (curative). The treatment was part of an experimental trial designed as a randomized complete block with four replications and a plot of approximately 2×1 m, with formulations of compound I being applied at water volume of 1200 L/ha based on seedling sizes.
# Disease severity was assessed as percent diseased area of cucumber foliage per plant (6 plants per plot randomly). Powdery mildew disease severity was assessed four times, 7 days after application A (DAAA), plus 7, 14 and 21 DAAB. Area under the disease progress curve (AUDPC) was calculated for each plot using the sets of recorded visual infection data. Relative AUDPC (% control based on AUDPC) was calculated as percent of the nontreated control.
smiles,measurement,setting,value
"COc1ccnc(C(=O)N[C@@H](C)C(=O)O[C@@H](C)C(c2ccc(F)cc2)c2ccc(F)cc2)c1OC(C)=O [Compound I, (S)-1,1-bis(4-fluorophenyl)propan-2-yl (3-acetoxy-4-methoxypicolinoyl)-L-alaninate]",Percent Control of CORYCA (AUDPC),"[1]; Compound I 50 g/ha, Agnique BP420, 200 mL/ha",53.1%
same,Percent Control of CORYCA (AUDPC),"[1]; Compound I 50 g/ha, MSO, 100 g/ha",55.2%
same,Percent Control of CORYCA (AUDPC),"[1]; Compound I 75 g/ha, Agnique BP420, 300 mL/ha",56.9%
same,Percent Control of CORYCA (AUDPC),"[1]; Compound I 75 g/ha, MSO, 150 g/ha",56.1%
same,Percent Control of CORYCA (AUDPC),"[1]; Compound I 100 g/ha, Adsee C80W 80%, 250 g/ha",61.4%
same,Percent Control of CORYCA (AUDPC),"[1]; Compound I 100 g/ha, Agnique BP420, 400 mL/ha",74.1%
same,Percent Control of CORYCA (AUDPC),"[1]; Compound I 100 g/ha, MSO, 200 g/ha",71.6%
same,Percent Control of CORYCA (AUDPC),"[1]; Compound I 150 g/ha, Agnique BP420, 600 mL/ha",83.9%
same,Percent Control of CORYCA (AUDPC),"[1]; Compound I 150 g/ha, MSO, 300 g/ha",84.0%
same,"Percent control based on AUDPC, FULVFU, adjuvant II",[2]; 50 g ai/ha,A (76-100)
same,"Percent control based on AUDPC, FULVFU, adjuvant I",[2]; 50 g ai/ha,C (26-50)
same,"Percent control based on AUDPC, FULVFU, adjuvant II",[2]; 100 g ai/ha,A (76-100)
same,"Percent control based on AUDPC, FULVFU, adjuvant IV","[2]; 100 g ai/ha, Ethomeen T18H (50% w/w at 0.2% v/v)",B (51-75)
same,"Percent control based on AUDPC, FULVFU, adjuvant V","[2]; 100 g ai/ha, Phase II (50% w/w at 0.2% v/v)",A (76-100)
same,"Percent control based on AUDPC, FULVFU, adjuvant III","[2]; 100 g ai/ha, Trycol (50% w/w at 0.1% v/v)",A (76-100)
same,"Percent control based on AUDPC, FULVFU, adjuvant I",[2]; 100 g ai/ha,C (26-50)
same,"Percent control based on AUDPC, FULVFU, adjuvant II",[2]; 150 g ai/ha,A (76-100)
same,"Percent control based on AUDPC, FULVFU, adjuvant II",[2]; 200 g ai/ha,A (76-100)
same,"Percent control based on AUDPC, ERYSCI 2 DC",[3]; 50 g ai/ha,A (76-100)
same,"Percent control based on AUDPC, ERYSCI 2 DC",[3]; 100 g ai/ha,B (51-75)
same,"Percent control based on AUDPC, ERYSCI 2 DC",[3]; 150 g ai/ha,C (26-50)
